Earlier results in patent publication EP4360619A1, “DOSAGE FORM FOR INTRA-ARTICULAR INJECTION […] AN […] IN THE TREATMENT OF CRYSTAL-AND NON-CRYSTAL […] IN[…]” (PK MED, priority 2022, dated 2024).

Settings: literature (E.Niel et al)

COc1cc2c(c(OC)c1OC)-c1ccc(OC)c(=O)cc1[C@@H](NC(C)=O)CC2 [colchicine, N-[(7S)-1,2,3,10-tetramethoxy-9-oxo-6,7-dihydro-5H-benzo[a]heptalen-7-yl]acetamide]
lethal dose: 0.8 mg/kg
toxicity limit: 0.1 mg/kg
